Assays:
[1] = test system: nasal epithelial cell-line (RPMI 2650); assay: cytotoxicity against nasal epithelial cell-line; type: cell-based; conditions: RPMI 2650 cells; even at high concentrations (>5 mM)
[2] = stability with excipients individually; type: physicochemical
solubility = type: physicochemical
Source text: (§1) Nefopam may thus be rapidly and completely absorbed from the nasal cavity and provide the rapid onset of action required to bring pain relief.

[3] = stability in solution across pH range; type: physicochemical; conditions: wide pH range (4-7) including pH 5.5-6.5
Source text: as §1

[4] = in vivo; cited from earlier work
mouse tail-flick test = conditions: cited from earlier work
hot plate test = conditions: in vivo; cited from earlier work
[5] = test system: Randall-Selitto pressure test; conditions: rats; cited from earlier work

stability with all the excipients individually ([2]; 4 weeks incubation at 25° C.): demonstrated
stability with all the excipients individually ([2]; 4 weeks incubation at 50° C.): demonstrated
solubility (solubility): highly soluble
stability in solution [3]: stable in solution
Structure (SMILES): CN1CCOC(c2ccccc2)c2ccccc2C1 (racemic) [nefopam]
cytotoxicity [1]: no cytotoxicity
elimination half-life [4]: four
activity in mouse tail-flick test (mouse tail-flick test): not active
activity in hot plate test (hot plate test): not active
activity in Randall-Selitto pressure test [5]: not active
